These results are taken from publication PMC11375437, “Selective labelling of GBA2 in cells with fluorescent β-D-arabinofuranosyl cyclitol aziridines” (Chemical Science, 2024).

Structures are written as SMILES.

The assay addresses T1, rhGBA1 (Homo sapiens, UniProt P04062, R534H).
T1 construct: purchased Sanofi Genzyme (gift) Cerezyme®
T1 sequence (P04062 40-536 R534H): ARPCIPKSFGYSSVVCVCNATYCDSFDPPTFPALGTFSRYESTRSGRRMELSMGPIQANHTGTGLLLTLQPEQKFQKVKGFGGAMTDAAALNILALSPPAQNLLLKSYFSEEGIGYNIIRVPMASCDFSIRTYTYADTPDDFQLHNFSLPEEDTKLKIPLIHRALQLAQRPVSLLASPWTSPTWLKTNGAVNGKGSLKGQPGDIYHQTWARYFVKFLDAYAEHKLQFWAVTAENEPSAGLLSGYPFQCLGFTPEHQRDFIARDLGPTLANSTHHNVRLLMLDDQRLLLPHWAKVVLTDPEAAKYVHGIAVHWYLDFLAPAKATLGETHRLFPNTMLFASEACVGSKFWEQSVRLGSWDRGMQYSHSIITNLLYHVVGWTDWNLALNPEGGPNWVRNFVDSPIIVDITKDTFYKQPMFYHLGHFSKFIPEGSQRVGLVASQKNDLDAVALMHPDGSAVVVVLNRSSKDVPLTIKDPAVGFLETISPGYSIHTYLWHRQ
In words: Labelling of GBA2 OE lysate spiked with rhGBA1, residual rhGBA1 read out with ABP 10 or 11. In kind it is biochemical. As to conditions: GBA2 OE lysate spiked with 3 ng rhGBA1; 30 min. How it is done:
To this end, lysates of HEK293T cells containing all β-glucosidases (endogenous GBA1 with overexpressed GBA2 and GBA3) were treated with ABPs 3, 4, 5 or 7, followed by protein separation by SDS-PAGE and fluorescence scanning of the wet gel slabs. […] In contrast, the β-D-Araf aziridine ABPs 3 and 4 selectively labelled GBA2 at a concentration of 100 nM, while Cy5 tagged ABP 5 did so at 500 nM. The GBA2 selectivity of β-D-Araf cyclitol aziridines 3, 4 and 5 was confirmed in a mixture of a lysate of overexpressed GBA2 cells spiked with 3 ng rhGBA1 (Fig. 2C and ESI Fig. S3 ^†). […] Therefore, only a combined inactivation rate constant (kinact) and binding constant (KI) ratio (kinact/KI) could be measured. […] Importantly, no labelling of GBA1 or GBA3 was detected under varying pH and time conditions (ESI Fig. S4-2 ^†). […]
2.8 β-Glucosidase inactivation visualized by competitive ABPP with SDS-PAGE In general, samples containing GBA1, GBA2 or GBA3 (see the exact constitution of these samples in the described case) are first incubated (in vitro or in situ) with the inactivator compounds, subsequently, the fluorescent readout ABPs were added and incubated with the mixture to reveal the residual active β-glucosidase enzymes. […]

Regarding `CC1=CC(C)=[N+]2C1=C(CCCCc1cn(CCCCCCCCN3[C@@H]4[C@H](CO)[C@@H](O)[C@H](O)[C@@H]43)nn1)c1c(C)cc(C)n1[B-]2(F)F` (some centres unmarked) [ABP 3], the “Concentration at which marginal GBA1 labelling occurs” value amounted to 10 µM. To `COc1ccc(C2=[N+]3C(=C(CCCCc4cn(CCCCCCCCN5[C@@H]6[C@H](CO)[C@@H](O)[C@H](O)[C@@H]65)nn4)c4ccc(-c5ccc(OC)cc5)n4[B-]3(F)F)C=C2)cc1` (some centres unmarked) [ABP 4] belongs 10 µM.
